Measurements from PubChem BioAssay AID2060508 (Molecular Pharmacology Branch, DTP, NCI, 2025).
pIC50: −log10 of the molar value.

Tested on: 454973-116-R2-J3-PDC spheroids, viability, % test/control
Test: Anticancer human tumor 454973-116-R2-J3-PDC patient-derived pancreatic carcinoma cell line growth inhibition [GQUAD]
Settings: spheroids with HUVEC and MSC; for pIC50: curve of first compound; for viability, T/C: stronger effect = lower value
Procedure, shortened: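 Viability of tumor cells grown as complex spheroids with endothelial and stromal cells, exposed to drug combinations. Top concentration at or near clinical Cmax (else 10 microM), diluted in half-log increments.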

[1] = second compound 0.0316 µM, first compound 0.0316 µM
[2] = second compound 0.0316 µM, first compound 0.1 µM
[3] = second compound 0.0316 µM, first compound 0.316 µM
[4] = second compound 0.0316 µM, first compound 1 µM
[5] = second compound 0.0316 µM, first compound 3.16 µM
[6] = second compound 0.0316 µM, first compound 10 µM
[7] = second compound 0.1 µM, first compound 0.0316 µM
[8] = second compound 0.1 µM, first compound 0.1 µM
[9] = second compound 0.1 µM, first compound 0.316 µM
[10] = second compound 0.1 µM, first compound 1 µM
[11] = second compound 0.1 µM, first compound 3.16 µM
[12] = second compound 0.1 µM, first compound 10 µM
[13] = second compound 0.316 µM, first compound 0.0316 µM
[14] = second compound 0.316 µM, first compound 0.1 µM
[15] = second compound 0.316 µM, first compound 0.316 µM
[16] = second compound 0.316 µM, first compound 1 µM
[17] = second compound 0.316 µM, first compound 3.16 µM
[18] = second compound 0.316 µM, first compound 10 µM
[19] = second compound 1 µM, first compound 0.0316 µM
[20] = second compound 1 µM, first compound 0.1 µM
[21] = second compound 1 µM, first compound 0.316 µM
[22] = second compound 1 µM, first compound 1 µM
[23] = second compound 1 µM, first compound 3.16 µM
[24] = second compound 1 µM, first compound 10 µM
[25] = second compound 3.16 µM, first compound 0.0316 µM
[26] = second compound 3.16 µM, first compound 0.1 µM
[27] = second compound 3.16 µM, first compound 0.316 µM
[28] = second compound 3.16 µM, first compound 1 µM
[29] = second compound 3.16 µM, first compound 3.16 µM
[30] = second compound 3.16 µM, first compound 10 µM
[31] = second compound 10 µM, first compound 0.0316 µM
[32] = second compound 10 µM, first compound 0.1 µM
[33] = second compound 10 µM, first compound 0.316 µM
[34] = second compound 10 µM, first compound 1 µM
[35] = second compound 10 µM, first compound 3.16 µM
[36] = second compound 10 µM, first compound 10 µM
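Note: spheroids exposed to compounds for seven days.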
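Throughout, for viability, T/C: 100% = DMSO vehicle control viability.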

**Q.** With `COc1ncnc(C2CC2)c1-c1ncc2cnn(Cc3ccc(-c4nc(C(F)(F)F)cn4C(C)C)cc3)c2n1` + Cc1cnc(CNC(=O)c2c(=O)c3ccc(N4CCCN(C)CC4)nc3n3c2sc2ccccc23)cn1 as the compound, how does the pIC50 (second compound 0.0316 µM) read?
**A.** The pIC50 was less than 5.00.

**Q.** What about the pIC50 (second compound 0.1 µM) of the same compound?
**A.** Its pIC50 is less than 5.00.

**Q.** What about the pIC50 (second compound 0.316 µM) of the same compound?
**A.** Its pIC50 is less than 5.00.

**Q.** What about the pIC50 (second compound 1 µM) of the same compound?
**A.** The pIC50 was less than 5.00.

**Q.** What about the pIC50 (second compound 3.16 µM) of the same compound?
**A.** Its pIC50 is less than 5.00.

**Q.** And the pIC50 (second compound 10 µM)?
**A.** Its pIC50 is greater than 7.50.

**Q.** What about the viability, T/C [1] of the same compound?
**A.** Its viability, T/C is 96%.

**Q.** And the viability, T/C [2]?
**A.** The viability, T/C was 94%.

**Q.** And the viability, T/C [3]?
**A.** Its viability, T/C is 87.8%.

**Q.** And the viability, T/C [4]?
**A.** Its viability, T/C is 104%.

**Q.** What about the viability, T/C [5] of the same compound?
**A.** The viability, T/C was 88.9%.

**Q.** And the viability, T/C [6]?
**A.** Its viability, T/C is 86.9%.

**Q.** What about the viability, T/C [7] of the same compound?
**A.** The viability, T/C was 82.1%.

**Q.** And the viability, T/C [8]?
**A.** Its viability, T/C is 69.4%.

**Q.** And the viability, T/C [9]?
**A.** Its viability, T/C is 74.7%.

**Q.** And the viability, T/C [10]?
**A.** Its viability, T/C is 71.4%.

**Q.** And the viability, T/C [11]?
**A.** Its viability, T/C is 69%.

**Q.** And the viability, T/C [12]?
**A.** The viability, T/C was 63.4%.

**Q.** And the viability, T/C [13]?
**A.** The viability, T/C was 65.4%.

**Q.** And the viability, T/C [14]?
**A.** The viability, T/C was 61.9%.

**Q.** What about the viability, T/C [15] of the same compound?
**A.** Its viability, T/C is 59.5%.

**Q.** And the viability, T/C [16]?
**A.** Its viability, T/C is 69.2%.

**Q.** What about the viability, T/C [17] of the same compound?
**A.** Its viability, T/C is 60%.

**Q.** What about the viability, T/C [18] of the same compound?
**A.** The viability, T/C was 62%.

**Q.** What about the viability, T/C [19] of the same compound?
**A.** The viability, T/C was 55.3%.

**Q.** And the viability, T/C [20]?
**A.** The viability, T/C was 69.4%.

**Q.** And the viability, T/C [21]?
**A.** Its viability, T/C is 57.4%.

**Q.** What about the viability, T/C [22] of the same compound?
**A.** Its viability, T/C is 63.2%.

**Q.** And the viability, T/C [23]?
**A.** Its viability, T/C is 61.4%.

**Q.** What about the viability, T/C [24] of the same compound?
**A.** Its viability, T/C is 58.4%.

**Q.** And the viability, T/C [25]?
**A.** The viability, T/C was 61.7%.

**Q.** What about the viability, T/C [26] of the same compound?
**A.** Its viability, T/C is 58.8%.

**Q.** And the viability, T/C [27]?
**A.** The viability, T/C was 61.7%.

**Q.** And the viability, T/C [28]?
**A.** Its viability, T/C is 57.8%.

**Q.** And the viability, T/C [29]?
**A.** Its viability, T/C is 67.8%.

**Q.** And the viability, T/C [30]?
**A.** Its viability, T/C is 54%.

**Q.** What about the viability, T/C [31] of the same compound?
**A.** The viability, T/C was 0.22%.

**Q.** And the viability, T/C [32]?
**A.** Its viability, T/C is 19.6%.

**Q.** What about the viability, T/C [33] of the same compound?
**A.** Its viability, T/C is 50.4%.

**Q.** What about the viability, T/C [34] of the same compound?
**A.** Its viability, T/C is 40.6%.

**Q.** What about the viability, T/C [35] of the same compound?
**A.** Its viability, T/C is 0.38%.

**Q.** What about the viability, T/C [36] of the same compound?
**A.** Its viability, T/C is 0.3%.

**Q.** With `Nc1ccn(C2OC(CO)C(O)C2(F)F)c(=O)n1` (centres undefined) + Cc1cnc(CNC(=O)c2c(=O)c3ccc(N4CCCN(C)CC4)nc3n3c2sc2ccccc23)cn1 as the compound, how does the pIC50 (second compound 0.0316 µM) read?
**A.** Its pIC50 is greater than 7.50.

**Q.** And the pIC50 (second compound 0.1 µM)?
**A.** The pIC50 was greater than 7.50.

**Q.** What about the pIC50 (second compound 0.316 µM) of the same compound?
**A.** Its pIC50 is greater than 7.50.

**Q.** And the pIC50 (second compound 1 µM)?
**A.** The pIC50 was greater than 7.50.

**Q.** And the pIC50 (second compound 3.16 µM)?
**A.** The pIC50 was greater than 7.50.

**Q.** What about the pIC50 (second compound 10 µM) of the same compound?
**A.** Its pIC50 is greater than 7.50.

**Q.** And the viability, T/C [1]?
**A.** The viability, T/C was 18.9%.

**Q.** What about the viability, T/C [2] of the same compound?
**A.** Its viability, T/C is 15.8%.

**Q.** What about the viability, T/C [3] of the same compound?
**A.** Its viability, T/C is 17.5%.

**Q.** What about the viability, T/C [4] of the same compound?
**A.** The viability, T/C was 16.6%.

**Q.** And the viability, T/C [5]?
**A.** The viability, T/C was 14.2%.

**Q.** And the viability, T/C [6]?
**A.** Its viability, T/C is 14.4%.

**Q.** And the viability, T/C [7]?
**A.** The viability, T/C was 22.7%.

**Q.** What about the viability, T/C [8] of the same compound?
**A.** Its viability, T/C is 16.1%.

**Q.** And the viability, T/C [9]?
**A.** The viability, T/C was 15.6%.

**Q.** And the viability, T/C [10]?
**A.** Its viability, T/C is 21.5%.

**Q.** What about the viability, T/C [11] of the same compound?
**A.** Its viability, T/C is 17.8%.

**Q.** And the viability, T/C [12]?
**A.** Its viability, T/C is 13.8%.

**Q.** And the viability, T/C [13]?
**A.** The viability, T/C was 30.5%.

**Q.** And the viability, T/C [14]?
**A.** Its viability, T/C is 19.5%.

**Q.** What about the viability, T/C [15] of the same compound?
**A.** The viability, T/C was 18.4%.

**Q.** What about the viability, T/C [16] of the same compound?
**A.** Its viability, T/C is 16.1%.

**Q.** What about the viability, T/C [17] of the same compound?
**A.** The viability, T/C was 20.2%.

**Q.** And the viability, T/C [18]?
**A.** Its viability, T/C is 23.2%.

**Q.** And the viability, T/C [19]?
**A.** The viability, T/C was 43.7%.

**Q.** And the viability, T/C [20]?
**A.** Its viability, T/C is 24.6%.

**Q.** And the viability, T/C [21]?
**A.** Its viability, T/C is 24%.

**Q.** And the viability, T/C [22]?
**A.** The viability, T/C was 24.2%.

**Q.** And the viability, T/C [23]?
**A.** Its viability, T/C is 22.9%.

**Q.** What about the viability, T/C [24] of the same compound?
**A.** Its viability, T/C is 21.8%.

**Q.** And the viability, T/C [25]?
**A.** The viability, T/C was 45.5%.

**Q.** What about the viability, T/C [26] of the same compound?
**A.** The viability, T/C was 29.6%.

**Q.** What about the viability, T/C [27] of the same compound?
**A.** Its viability, T/C is 30.5%.

**Q.** What about the viability, T/C [28] of the same compound?
**A.** The viability, T/C was 24.8%.

**Q.** And the viability, T/C [29]?
**A.** The viability, T/C was 32.8%.

**Q.** And the viability, T/C [30]?
**A.** The viability, T/C was 28.5%.

**Q.** And the viability, T/C [31]?
**A.** The viability, T/C was 0.17%.

**Q.** What about the viability, T/C [32] of the same compound?
**A.** Its viability, T/C is 9.59%.

**Q.** And the viability, T/C [33]?
**A.** The viability, T/C was 26.2%.

**Q.** What about the viability, T/C [34] of the same compound?
**A.** Its viability, T/C is 7.48%.

**Q.** And the viability, T/C [35]?
**A.** Its viability, T/C is 0.89%.

**Q.** And the viability, T/C [36]?
**A.** Its viability, T/C is 0.22%.
